{
  "source": "patent US11524966B1",
  "about": "(Valo Early Discovery, Inc., priority 2017, dated 2022)",
  "data": [
    {"biological_target": "T1, USP28 (His-tagged USP28-FL-mammalian) (Homo sapiens, UniProt Q96RU2)", "T1 construct": "Expression of USP28 (1-1077)-TEV-6*His (pTT5 vector); made in house; host or cells: Expi293f cells (pTT5 vector)", "T1 sequence (Q96RU2 1-1077)": "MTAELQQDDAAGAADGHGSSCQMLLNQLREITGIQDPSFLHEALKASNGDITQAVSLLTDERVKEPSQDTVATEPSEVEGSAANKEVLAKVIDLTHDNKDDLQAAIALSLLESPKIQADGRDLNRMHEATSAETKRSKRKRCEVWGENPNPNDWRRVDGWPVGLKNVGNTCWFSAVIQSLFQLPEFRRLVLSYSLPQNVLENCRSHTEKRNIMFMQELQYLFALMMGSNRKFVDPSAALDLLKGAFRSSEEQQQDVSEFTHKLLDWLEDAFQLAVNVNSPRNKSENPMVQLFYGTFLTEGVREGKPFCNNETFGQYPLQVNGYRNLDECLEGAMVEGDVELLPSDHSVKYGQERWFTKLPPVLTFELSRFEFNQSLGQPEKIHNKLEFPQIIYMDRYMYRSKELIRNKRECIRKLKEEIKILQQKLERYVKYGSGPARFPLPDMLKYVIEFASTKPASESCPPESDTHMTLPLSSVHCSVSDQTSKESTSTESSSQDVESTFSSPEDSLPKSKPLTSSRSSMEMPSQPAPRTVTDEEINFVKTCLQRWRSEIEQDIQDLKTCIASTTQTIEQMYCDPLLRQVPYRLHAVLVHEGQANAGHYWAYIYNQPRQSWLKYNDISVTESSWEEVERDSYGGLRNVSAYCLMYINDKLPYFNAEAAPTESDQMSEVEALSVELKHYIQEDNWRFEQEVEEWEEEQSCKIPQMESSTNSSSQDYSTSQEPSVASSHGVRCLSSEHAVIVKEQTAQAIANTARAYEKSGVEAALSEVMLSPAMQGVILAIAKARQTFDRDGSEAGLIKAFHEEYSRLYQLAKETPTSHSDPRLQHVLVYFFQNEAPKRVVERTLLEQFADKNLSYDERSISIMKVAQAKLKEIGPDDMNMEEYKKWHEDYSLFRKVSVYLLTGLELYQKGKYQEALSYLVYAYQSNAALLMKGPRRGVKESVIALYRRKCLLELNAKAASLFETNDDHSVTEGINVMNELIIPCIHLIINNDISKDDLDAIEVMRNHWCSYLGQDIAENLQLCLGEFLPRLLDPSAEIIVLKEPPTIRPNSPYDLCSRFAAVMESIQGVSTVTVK", "assay": "Ubiquitin-Rhodamine 110 Assay for USP28 Activity, Example A-1(a)", "format": "biochemical", "settings": "Ubiquitin-Rhodamine 110 assay, Example A-1(a); read-out: USP28 A-1(a) IC50 range", "how_it_was_run": "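IC50 from 4-parameter logistic fit of percent inhibition versus no-enzyme and DMSO controls; compounds 25 μM to 1.3 nM, 3-fold. Ub-Rh110 cleavage (25 nM, below Km) by […] mammalian-expressed USP28-FL-His ran 45 min at room temperature, stopped with 10 mM citric acid, read ex 485/em 535.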", "units": {"IC50": "nM"}, "values": [
      {"smiles": "Cc1nc2sc(C(=O)N[C@H]3COc4cc(N5CCNCC5)ncc4C3)c(N)c2cc1F", "note": "[Example 72, (R)-3-amino-5-fluoro-6-methyl-N-(7-(piperazin-1-yl)-3,4-dihydro-2H-pyrano[3,2-c]pyridin-3-yl)thieno[2,3-b]pyridine-2-carboxamide]", "IC50": "1 to 50"},
      {"smiles": "C[C@H]1CCc2cc(C(=O)N[C@H]3COc4cc(N5CC6CCC(C5)N6)ccc4C3)cnc2N1", "note": "[Example 73, (7S)-N-((3R)-7-(3,8-diazabicyclo[3.2.1]octan-3-yl)chroman-3-yl)-7-methyl-5,6,7,8-tetrahydro-1,8-naphthyridine-3-carboxamide]", "IC50": "> 2000"},
      {"smiles": "C[C@@H]1CCc2cc(C(=O)N[C@H]3COc4cc(N5CC6CCC(C5)N6)ccc4C3)cnc2N1", "note": "[Example 74, (7R)-N-((3R)-7-(3,8-diazabicyclo[3.2.1]octan-3-yl)chroman-3-yl)-7-methyl-5,6,7,8-tetrahydro-1,8-naphthyridine-3-carboxamide]", "IC50": "50 to 200"},
      {"smiles": "Cc1ccc2c(N)c(C(=O)N[C@H]3COc4cc(N5C[C@@H]6CC[C@H]5CN6)ncc4C3)sc2n1", "note": "[Example 75, N-((R)-7-((1S, 4S)-2 5-diazabicyclo[2.2.2]octan-2-yl)-3,4-dihydro-2H-pyrano[3,2-c]pyridin-3-yl)-3-amino-6-methylthieno[2,3-b]pyridine-2-carboxamide]", "IC50": "1 to 50"},
      {"smiles": "Cc1ccc2c(N)c(C(=O)N[C@H]3COc4cc(N5C[C@H]6CC[C@@H]5CN6)ncc4C3)sc2n1", "note": "[Example 76, N-((R)-7-((1 R,4R)-2,5-diazabicyclo[2.2.2]octan-2-yl)-3,4-dihydro-2H-pyrano[3,2-c]pyridin-3-yl)-3-amino-6-methylthieno[2,3-b]pyridine-2-carboxamide]", "IC50": "1 to 50"},
      {"smiles": "Cc1cnc2c(N)c(C(=O)N[C@H]3COc4c(C#N)c(N5CC6CC(C5)N6)cc(F)c4C3)sc2n1", "note": "[Example 77, N-((3R)-7-(3,6-diazabicyclo[3.1.1]heptan-3-yl)-8-cyano-5-fluorochroman-3-yl)-7-amino-3-methylthieno[2,3-b]pyrazine-6-carboxamide]", "IC50": "50 to 200"},
      {"smiles": "Cc1ccc2c(N)c(C(=O)N[C@H]3COc4c(F)c(N5CC6CNCC(C5)O6)cc(F)c4C3)sc2n1", "note": "[Example 78, N-((3R)-7-(9-oxa-3,7-diazabicyclo[3.3.1]nonan-3-yl)-5,8-difluorochroman-3-yl)-3-amino-6-methylthieno[2,3-b]pyridine-2-carboxamide]", "IC50": "1 to 50"},
      {"smiles": "Cc1ccc2c(N)c(C(=O)N[C@H]3COc4cc(N5CC6CNCC(C5)O6)c(F)c(F)c4C3)sc2n1", "note": "[Example 79, N-((3R)-7-(9-oxa-3,7-diazabicyclo[3.3.1]nonan-3-yl)-5,6-difluorochroman-3-yl)-3-amino-6-methylthieno[2,3-b]pyridine-2-carboxamide]", "IC50": "1 to 50"},
      {"smiles": "Cc1ccc2c(N)c(C(=O)N[C@H]3COc4cc([C@H]5CCNC[C@@H]5F)ccc4C3)sc2n1", "note": "[Example 80, 3-amino-N-((R)-7-((3R,4R)-3-fluoropiperidin-4-yl)chroman-3-yl)-6-methylthieno[2,3-b]pyridine-2-carboxamide]", "IC50": "1 to 50"},
      {"smiles": "Cc1ccc2c(N)c(C(=O)N[C@H]3COc4cc([C@@H]5CCNC[C@H]5F)ccc4C3)sc2n1", "note": "[Example 81, 3-amino-N-((R)-7-((3S,4S)-3-fluoropiperidin-4-yl)chroman-3-yl)-6-methylthieno[2,3-b]pyridine-2-carboxamide]", "IC50": "1 to 50"},
      {"smiles": "Cc1ccc2c(N)c(C(=O)N[C@H]3COc4cc([C@H]5CCNC[C@H]5F)ccc4C3)sc2n1", "note": "[Example 82, 3-amino-N-((R)-7-((3S,4R)-3-fluoropiperidin-4-yl)chroman-3-yl)-6-methylthieno[2,3-b]pyridine-2-carboxamide]", "IC50": "1 to 50"},
      {"smiles": "Cc1ccc2c(N)c(C(=O)N[C@H]3COc4cc([C@@H]5CCNC[C@@H]5F)ccc4C3)sc2n1", "note": "[Example 83, 3-amino-N-((R)-7-((3R,4S)-3-fluoropiperidin-4-yl)chroman-3-yl)-6-methylthieno[2,3-b]pyridine-2-carboxamide]", "IC50": "1 to 50"},
      {"smiles": "CCn1ccc2cc(C(=O)N[C@H]3COc4c(F)c([C@@H]5CCNC[C@@H]5O)cc(F)c4C3)nnc21", "note": "[Example 84, N-((R)-5,8-difluoro-7-((3R,4S)-3-hydroxypiperidin-4-yl)chroman-3-yl)-7-ethyl-7H-pyrrolo[2,3-c]pyridazine-3-carboxamide]", "IC50": "200 to 2000"},
      {"smiles": "CCn1ccc2cc(C(=O)N[C@H]3COc4c(F)c([C@H]5CCNC[C@H]5O)cc(F)c4C3)nnc21", "note": "[Example 85, N-((R)-5,8-difluoro-7-((3S,4R)-3-hydroxypiperidin-4-yl)chroman-3-yl)-7-ethyl-7H-pyrrolo[2,3-c]pyridazine-3-carboxamide]", "IC50": "200 to 2000"},
      {"smiles": "CO[C@@H]1CN(c2cc(F)c3c(c2F)OC[C@H](NC(=O)c2sc4nc(C)ccc4c2N)C3)C[C@H]1N", "note": "[Example 86]", "IC50": "1 to 50"},
      {"smiles": "CO[C@H]1CN(c2cc(F)c3c(c2F)OC[C@H](NC(=O)c2sc4nc(C)ccc4c2N)C3)C[C@@H]1N", "note": "[Example 87, 3-amino-N-((R)-7-((3S,4S)-3-amino-4-methoxypyrrolidin-1-yl)-5,8-difluorochroman-3-yl)-6-methylthieno[2,3-b]pyridine-2-carboxamide]", "IC50": "1 to 50"},
      {"smiles": "Cc1cc(C(F)F)c2c(N)c(C(=O)N[C@H]3COc4cc(N5CC6CNCC(C5)O6)ccc4C3)sc2n1", "note": "[Example 88, N-((3R)-7-(9-oxa-3,7-diazabicyclo[3.3.1]nonan-3-yl)chroman-3-yl)-3-amino-4-(difluoromethyl)-6-methylthieno[2,3-b]pyridine-2-carboxamide]", "IC50": "1 to 50"},
      {"smiles": "O=C(N[C@H]1COc2c(F)c(N3CC4CCC(C3)N4)cc(F)c2C1)c1cnc2c(c1)[C@@H]1C[C@@H]1CN2", "note": "[Example 89, (1aS, 7bR)-N-((3R)-7-(3 8-diazabicyclo[3.2.1]octan-3-yl)-5,8-difluorochroman-3-yl)-1a,2,3,7b-tetrahydro-1H-cyclopropa[c][1,8]naphthyridine-6-carboxamide]", "IC50": "1 to 50"},
      {"smiles": "O=C(N[C@H]1COc2c(F)c(N3CC4CCC(C3)N4)cc(F)c2C1)c1cnc2c(c1)[C@H]1C[C@H]1CN2", "note": "[Example 90, (1aR,7bS)-N-((3R)-7-(3,8-diazabicyclo[3.2.1]octan-3-yl)-5,8-difluorochroman-3-yl)-1a,2,3,7b-tetrahydro-1H-cyclopropa[c][1,8]naphthyridine-6-carboxamide]", "IC50": "200 to 2000"},
      {"smiles": "CO[C@@H]1CN(c2ccc3c(c2F)OC[C@H](NC(=O)c2sc4nc(C)ccc4c2N)C3)C[C@H]1N", "note": "[Example 91, 3-amino-N-[(3R )-7-[(3R,4R)-3-amino-4-methoxypyrrolidin-1-yl]-8-fluoro-3,4-dihydro-2H-1-benzopyran-3-yl]-6-methylthieno[2,3-b]pyridine-2-carboxamide]", "IC50": "50 to 200"},
      {"smiles": "CO[C@H]1CN(c2ccc3c(c2F)OC[C@H](NC(=O)c2sc4nc(C)ccc4c2N)C3)C[C@@H]1N", "note": "[Example 92, 3-amino-N-[(3R)-7-[(3S,4S)-3-amino-4-methoxypyrrolidin-1-yl]-8-fluoro-3,4-dihydro-2H-1-benzopyran-3-yl]-6-methylthieno[2,3-b]pyridine-2-carboxamide]", "IC50": "1 to 50"},
      {"smiles": "CO[C@@H]1CN(c2cc3c(cc2F)C[C@@H](NC(=O)c2sc4nc(C)ccc4c2N)CO3)C[C@H]1N", "note": "[Example 93, 3-amino-N-[(3R)-7-[(3R,4R)-3-amino-4-methoxypyrrolidin-1-yl]-6-fluoro-3,4-dihydro-2H-1-benzopyran-3-yl]-6-methylthieno[2,3-b]pyridine-2-carboxamide]", "IC50": "50 to 200"}
    ]}
  ]
}
